# From ChEMBL document CHEMBL1201862, “PubChem BioAssay data set” (2004)
#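 Cultured in 96-well plates, cells were exposed to test compound for 48 hours across five concentrations. At the GI50, growth is halved.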 The source made the active and inactive calls. No stated cut-off is given here; in the data, active = GI50 up to about 1.1 µM and inactive = higher.
# Experiments:
# Experiment in all cases: NCI-60 cell line screen, 48 h
# 786-0 = tested on: 786-0
# A498 = tested on: A498
# A549 = tested on: A549
# ACHN = tested on: ACHN
# BT-549 = tested on: BT-549
# CAKI-1 = tested on: CAKI-1
# CCRF-CEM = tested on: CCRF-CEM
# COLO 205 = tested on: COLO 205
# DU-145 = tested on: DU-145
# EKVX = tested on: EKVX
# HCT-116 = tested on: HCT-116
# HCT-15 = tested on: HCT-15
# HL-60 = tested on: HL-60
# HOP-62 = tested on: HOP-62
# HT-29 = tested on: HT-29
# Hs-578T = tested on: Hs-578T
# IGROV-1 = tested on: IGROV-1
# KM12 = tested on: KM12
# M14 = tested on: M14
# MDA-MB-231 = tested on: MDA-MB-231
# MDA-MB-435 = tested on: MDA-MB-435
# MDA-N = tested on: MDA-N
# NCI-H226 = tested on: NCI-H226
# NCI-H23 = tested on: NCI-H23
# NCI-H460 = tested on: NCI-H460
# NCI-H522 = tested on: NCI-H522
# OVCAR-3 = tested on: OVCAR-3
# OVCAR-4 = tested on: OVCAR-4
# OVCAR-5 = tested on: OVCAR-5
# OVCAR-8 = tested on: OVCAR-8
# PC-3 = tested on: PC-3
# RPMI-8226 = tested on: RPMI-8226
# RXF 393 = tested on: RXF 393
# SF-268 = tested on: SF-268
# SF-295 = tested on: SF-295
# SK-MEL-28 = tested on: SK-MEL-28
# SK-MEL-2 = tested on: SK-MEL-2
# SK-MEL-5 = tested on: SK-MEL-5
# SK-OV-3 = tested on: SK-OV-3
# SN12C = tested on: SN12C
# SNB-19 = tested on: SNB-19
# SW-620 = tested on: SW-620
# TK-10 = tested on: TK-10
# U-251 = tested on: U-251
# UACC-257 = tested on: UACC-257
# UACC-62 = tested on: UACC-62
# UO-31 = tested on: UO-31
# HCC 2998 = tested on: HCC 2998
# K562 = tested on: K562
# LOX IMVI = tested on: LOX IMVI
# MCF7 = tested on: MCF7
# MOLT-4 = tested on: MOLT-4
# Malme-3M = tested on: Malme-3M
# NCI/ADR-RES = tested on: NCI/ADR-RES
# SF-539 = tested on: SF-539
# SNB-75 = tested on: SNB-75
# SR = tested on: SR
smiles,measurement,setting,value
O=[N+]([O-])c1ccc(C2c3c(O)nc(O)nc3Oc3nc(O)nc(O)c32)cc1,GI50,786-0,> 100 µM (inactive)
same,GI50,A498,> 100 µM (inactive)
same,GI50,A549,> 100 µM (inactive)
same,GI50,ACHN,> 100 µM (inactive)
same,GI50,BT-549,> 100 µM (inactive)
same,GI50,CAKI-1,> 100 µM (inactive)
same,GI50,CCRF-CEM,13.8 µM (inactive)
same,GI50,COLO 205,> 100 µM (inactive)
same,GI50,DU-145,> 100 µM (inactive)
same,GI50,EKVX,> 100 µM (inactive)
same,GI50,HCT-116,> 100 µM (inactive)
same,GI50,HCT-15,> 100 µM
same,GI50,HL-60,33.7 µM (inactive)
same,GI50,HOP-62,> 100 µM (inactive)
same,GI50,HT-29,> 100 µM (inactive)
same,GI50,Hs-578T,> 100 µM (inactive)
same,GI50,IGROV-1,> 100 µM (inactive)
same,GI50,KM12,> 100 µM (inactive)
same,GI50,M14,> 100 µM (inactive)
same,GI50,MDA-MB-231,> 100 µM (inactive)
same,GI50,MDA-MB-435,> 100 µM (inactive)
same,GI50,MDA-N,> 100 µM (inactive)
same,GI50,NCI-H226,> 100 µM (inactive)
same,GI50,NCI-H23,> 100 µM (inactive)
same,GI50,NCI-H460,> 100 µM (inactive)
same,GI50,NCI-H522,17.9 µM (inactive)
same,GI50,OVCAR-3,> 100 µM (inactive)
same,GI50,OVCAR-4,> 100 µM (inactive)
same,GI50,OVCAR-5,> 100 µM (inactive)
same,GI50,OVCAR-8,> 100 µM (inactive)
same,GI50,PC-3,> 100 µM (inactive)
same,GI50,RPMI-8226,28.8 µM (inactive)
same,GI50,RXF 393,8.36 µM (inactive)
same,GI50,SF-268,> 100 µM (inactive)
same,GI50,SF-295,> 100 µM (inactive)
same,GI50,SK-MEL-28,> 100 µM (inactive)
same,GI50,SK-MEL-2,> 100 µM (inactive)
same,GI50,SK-MEL-5,> 100 µM (inactive)
same,GI50,SK-OV-3,> 100 µM (inactive)
same,GI50,SN12C,> 100 µM (inactive)
same,GI50,SNB-19,> 100 µM (inactive)
same,GI50,SW-620,> 100 µM (inactive)
same,GI50,TK-10,> 100 µM (inactive)
same,GI50,U-251,> 100 µM (inactive)
same,GI50,UACC-257,> 100 µM (inactive)
same,GI50,UACC-62,95.3 µM (inactive)
same,GI50,UO-31,> 100 µM (inactive)
O=C(O)C(=Cc1ccc(-c2ccc([N+](=O)[O-])cc2)o1)C(=O)O,GI50,786-0,> 100 µM (inactive)
same,GI50,A498,> 100 µM (inactive)
same,GI50,A549,> 100 µM (inactive)
same,GI50,ACHN,> 100 µM (inactive)
same,GI50,BT-549,> 100 µM (inactive)
same,GI50,CAKI-1,> 100 µM (inactive)
same,GI50,CCRF-CEM,> 100 µM (inactive)
same,GI50,COLO 205,> 100 µM (inactive)
same,GI50,DU-145,> 100 µM (inactive)
same,GI50,EKVX,> 100 µM (inactive)
same,GI50,HCC 2998,> 100 µM (inactive)
same,GI50,HCT-116,> 100 µM (inactive)
same,GI50,HCT-15,> 100 µM
same,GI50,HL-60,> 10 µM (inactive)
same,GI50,HOP-62,< 0.01 µM (active)
same,GI50,HT-29,> 100 µM (inactive)
same,GI50,Hs-578T,> 100 µM (inactive)
same,GI50,IGROV-1,> 100 µM (inactive)
same,GI50,K562,> 100 µM (inactive)
same,GI50,KM12,> 100 µM (inactive)
same,GI50,LOX IMVI,> 100 µM (inactive)
same,GI50,M14,> 100 µM (inactive)
same,GI50,MCF7,> 100 µM (inactive)
same,GI50,MDA-MB-231,> 100 µM (inactive)
same,GI50,MDA-MB-435,> 100 µM (inactive)
same,GI50,MDA-N,> 100 µM (inactive)
same,GI50,MOLT-4,> 100 µM (inactive)
same,GI50,Malme-3M,> 100 µM (inactive)
same,GI50,NCI-H226,> 100 µM (inactive)
same,GI50,NCI-H23,> 100 µM (inactive)
same,GI50,NCI-H460,> 100 µM (inactive)
same,GI50,NCI-H522,> 100 µM (inactive)
same,GI50,NCI/ADR-RES,> 100 µM (inactive)
same,GI50,OVCAR-3,> 100 µM (inactive)
same,GI50,OVCAR-5,> 100 µM (inactive)
same,GI50,OVCAR-8,> 100 µM (inactive)
same,GI50,PC-3,> 100 µM (inactive)
same,GI50,RPMI-8226,> 100 µM (inactive)
same,GI50,RXF 393,> 100 µM (inactive)
same,GI50,SF-268,> 100 µM (inactive)
same,GI50,SF-295,> 100 µM (inactive)
same,GI50,SF-539,> 100 µM (inactive)
same,GI50,SK-MEL-28,> 100 µM (inactive)
same,GI50,SK-MEL-2,> 100 µM (inactive)
same,GI50,SK-MEL-5,> 100 µM (inactive)
same,GI50,SK-OV-3,> 100 µM (inactive)
same,GI50,SN12C,> 100 µM (inactive)
same,GI50,SNB-19,> 100 µM (inactive)
same,GI50,SNB-75,> 100 µM (inactive)
same,GI50,SR,> 100 µM (inactive)
same,GI50,SW-620,> 100 µM (inactive)
same,GI50,TK-10,> 100 µM (inactive)
same,GI50,U-251,> 100 µM (inactive)
same,GI50,UACC-257,> 100 µM (inactive)
same,GI50,UACC-62,> 100 µM (inactive)
same,GI50,UO-31,> 100 µM (inactive)
CC(=O)OCC1OC(n2c(-c3ccccc3)cc(-c3ccccc3)c(C#N)c2=O)C(OC(C)=O)C(OC(C)=O)C1OC(C)=O (centres undefined),GI50,RXF 393,56 µM (inactive)
